According to patent publication US12565680B2, “Cancer neoantigens and their utilities in cancer vaccines and TCR-based cancer immunotherapy” (THE METHODIST HOSPITAL SYSTEM, priority 2018, dated 2026):

Columns and labels:
T-cell clones of 135TIL = assay: IFN-γ ELISA with tumor-reactive T-cell clones of 135TIL; format: cell-based, human
Text: Thus, immunogenic antigens can be generated from various sources or mechanisms [such as alternative ORFs, noncoding regions (3′ and 5′ UTRs, introns, noncoding RNA)]. […] All other tumor-reactive CD4^+ T-cell clones and CD8^+ T-cell clones recognized the mutation-derived neoantigens. […] To identify these two antigens recognized by these two CD4^+ T-cell clones, an Ii-fusion cDNA library derived from 135 mel tumor cells was constructed using experimental procedures. The Ii-fusion cDNA library pools (approximately 100 cDNA clones per pool) were transfected into 293IMDR3/DP4 or 293IMDR4/DP4 cells, followed by co-culturing with CD4^+ T-cell clones (135-1C1 or 135-1E1). After 2×10^5 cDNA clones, positive cDNA library pools that stimulate two T-cell clones, respectively, were identified based on IFN-γ release by ELISA (FIG. 6B). The positive pools were then transformed into Stbl3™ Escherichia coli, and single bacteria colonies were picked for plasmid DNA isolation. The screening assays were repeated in the same APCs transfected with the single cDNA-containing plasmids, and identified three clones that were able to stimulate 135-1C1 T cells, and two clones that reacted with 135-1E1 T cells (FIG. 6C). […] The 135-1E1 T cell-reactive cDNA clones encoded the product translated from an alternative reading frame of CTAG2 (LAGE1b) (FIG. 6C and FIG. 7A). […] LAGE1 is a cancer-testis antigen, with over 80% amino acid sequence identical to NY-ESO-1 protein, which is the most immunogenic tumor antigen identified to date. To define the T cell epitopes, wee generated a series of deletions and truncations of 3′ UTR region of ADIPOR2 gene, and narrowed down T cell epitope to a 26 aa peptide-coding sequence that stimulate 135-1C1 T cell response (FIG. 7D). Using similar approach, T cell epitopes were narrowed down to a 69 aa peptide-coding sequence of the LAGE1b alternative ORF2 for 135-1E1 T-cell recognition (FIG. 7E).
Using systemic and multiple approaches, 8 cancer neoantigens were identified in 135 mel and 7 neoantigens in 136 mel. To understand the potential mechanisms that restrain the number of neoantigens that could induce T cell response, it was asked whether these neoantigens were equally recognized by T cells.
T-cell cloning and expansion were performed. Briefly, T-cell clones from 135TILs were generated by a limited dilution (0.3 cell/well) in 96-well plates. Allogeneic PBMCs from normal donors were irradiated (60 Gy) and then seeded as feeder cells (7×10^4/well) in TCM containing 35 ng/ml OKT3 (anti-hCD3 antibody) (R&D Systems) and 35 ng/ml anti-hCD28 antibody (R&D Systems). On day 1, recombinant IL-2 was added to the final concentration of 300 IU/ml. On day 5, half of the culture medium was replaced with fresh TCM containing recombinant IL-2, and then the medium was changed every other day or when the medium color turned yellow. On day 14, T-cell clones were harvested, counted, tested for tumor reactivity. Tumor reactive T-cell clones were further expanded.
(§1) 96-well tissue culture plates were coated with phosphate-buffered saline (PBS, GenDEPOT) containing 50 μg/ml poly-L-lysine (Millipore Sigma) at 37° C. 10 min later, the plates were rinsed twice with PBS. Tumor cells or 293-APCs were seeded at 5×10^4/well in the 96-well plate and cultured at 37° C., 5% CO2 for at least 4 h. For plasmid transfection, 250 ng of plasmid DNA were transfected into 293-APCs per well with 0.5 μl of Lipofectamine 2000 (Thermo Fisher Scientific) according to the manufacturer's instructions and incubated at 37° C., in 5% CO2 overnight. For peptide presentation, synthesized peptides (GeneScript) were added to each well at different final concentrations from 10^2 to 10^−4 μM and incubated at 37° C., 5% CO2. The cells transfected with plasmids or pulsed with peptides were washed with TCM twice, and then cocultured with T cells (1×10^5/well). After overnight culture, 50 μl of supernatant was collected for measuring cytokine release with an ELISA assay. […]

135TIL [1] = assay: IFN-γ ELISA with bulk 135TIL (IVT-RNA electroporated 135EBV-B cells; peptide titration and truncation); format: cell-based, human; details: serially diluted peptides
Experimental: Due to low transfection efficiency of EBV-B cells, in vitro transcribed (IVT) RNA of 24 TMGs were generated and then electroporated them into 135EBV-B cells, followed by adding 135TIL cells for antigen recognition based on cytokine release assay.
as §1, with “(1×10^5/well).” for “(1×10^5/well). After overnight culture, 50 μl of supernatant was collected for measuring cytokine release with an ELISA assay.”
96-well microplate (Greiner Bio-one) was coated with 50 μl of PBS containing anti-human IFN-γ (Thermo Fisher Scientific, primary antibody, 1 μg/ml) per well and incubated at 4° C. overnight. […] The plate was read at OD450 nm. The concentration of IFN-γ was calculated by standard reading. […]

135TIL [2] = assay: TCR β CDR3 repertoire analysis; parameters: species or system human; details: TCRβ CDR3 profiling
Text: To address this issue, PCDHB16 neoantigen-specific CD4^+ T cells were isolated by FACS sorting of PCDHB16-neoantigen T cells from freshly generated bulk T cells after stimulated PCDHB16 neoepitope peptide-pulsed 135EBV-B cells. Using the similar approach, MPG-specific CD8+ T cells were also purified from freshly generated bulk T cells after stimulated MPG neoepitope peptide-pulsed 135EBV-B cells. Genomic DNAs were isolated from the two purified neoantigen-specific T cell populations, as well as the parental bulk T cells, and used as templates for TCR β-chain CDR3 repertoire amplification. […] After the amplicons (from PCDHB16-, MPG-specific T cells and bulk 135TIL) were subjected to deep-sequenced via next-generation sequencing (reads>100,000 per sample), followed by bioinformatic analysis and TCR repertoire alignment. […] The relative TCR sequence frequencies that were identical to those in PCDHB16-specific T cells and MPG-specific T cells were determined in total 135TIL cell population (FIG. 10F). […]
Cytokine Secretion Assay-Detection Kit (MACS Miltenyi Biotec) was used in cell-surface IFN-γ staining based on a commercial protocol. […] Finally cells were washed with cold buffer and ready for flow cytometric analysis. […]

135TIL [3] = assay: Intracellular staining of IFN-γ after neoantigen peptide stimulation, 135TIL; format: cell-based, human
Experimental: T cells were stimulated by various in vitro methods, such as tumor cells, peptides or DNA encoding neoantigens, etc. and induced to release cytokines. Stimulated T cells were resuspended in 100 μl of Cytofix/Cytoperm solution (BD Biosciences) per well for microwell plates (or 250 μl for tubes) and incubated for 20 min at 4° C. for cell fixation. Fixed cells were permeabilized by washing twice in 1× Perm/Wash buffer (BD Biosciences). Then the fixed/permeabilized cells were thoroughly resuspended in 50 μl of 1× Perm/Wash buffer containing 1 μl of phycoerythrin (PE)-conjugated IFN-γ antibody (Thermo Fisher Scientific) and incubate at 4° C. for 30 min in the dark. After that the cells were washed twice with 1× Perm/Wash buffer and ready for flow cytometric analysis.

| Sequence | recognition of antigen peptides by specific T-cell clones (T-cell clones of 135TIL; peptide titration, 135-1C1 (ADIPOR2), 135-1E1 (LAGE1b)) | recognition of titrated peptides by 135TIL (IFN-γ ELISA) (135TIL [1]) | neoantigen-specific TCRs in the total 135TIL TCRs (135TIL [2]) | percentage of CD8^+ tumor-reactive T-cell clones recognizing the neoantigen (T-cell clones of 135TIL; 40 clones) | number of CD8^+ tumor-reactive T-cell clones recognizing the neoantigen (T-cell clones of 135TIL; of 40 clones) | share of tumor-reactive CD8^+ T cells specific for the neoantigen (135TIL [3]) | CD8^+ T cells recognizing the neoantigen in the total T cell population (135TIL [3]; intracellular cytokine staining) |
| --- | --- | --- | --- | --- | --- | --- | --- |
| MKLTSLMCNPVKSPFFGCVCGHVPISMCVSTCSSLPTASCALDLTVLAENSHQVGA [ADIPOR2, 56 aa reading frame in the 3′UTR of gene ADIPOR2] | strongly recognized | little or no activity |  |  |  |  |  |
| YGMYFCMNISSQEDGACVLLRALEP [MPG, immunodominant MHC-I neoantigen of patient #135] |  |  | 25.5% | 67.5% | 27 | 65% | 12.3% |
